Experimental data from US4172891A, “Cephalosporins” (Takeda Chemical Industries, Inc., priority 1976, dated 1979).

Assays:
E. coli T-7 = experiment: Minimum Inhibitory Concentration, agar dilution, E. coli T-7; format: cell-based; details: Escherichia coli, T7; E. coli T-7; agar dilution; read-out: Minimum Inhibitory Concentration
Description: (§1) […]. | Minimum Inhibitory Concentrations (mcg/ml, agar dilution)

Cit. freundii GN 99 = experiment: Minimum Inhibitory Concentration, agar dilution, Cit. freundii GN 99; format: cell-based; details: Citrobacter freundii, GN99; Cit. freundii GN 99; agar dilution; read-out: Minimum Inhibitory Concentration
Description: as §1

P. vulgaris IFO 3988 = experiment: Minimum Inhibitory Concentration, agar dilution, P. vulgaris IFO 3988; format: cell-based; details: Proteus vulgaris, IFO3988; P. vulgaris IFO 3988; agar dilution; read-out: Minimum Inhibitory Concentration
Description: as §1

E. coli NIHJ = experiment: Minimum Inhibitory Concentration, agar dilution, E. coli NIHJ; format: cell-based; details: Escherichia coli; E. coli NIHJ; agar dilution; read-out: Minimum Inhibitory Concentration
Description: as §1

Ent. cloacae IFO 12937 = experiment: Minimum Inhibitory Concentration, agar dilution, Ent. cloacae IFO 12937; format: cell-based; details: Enterobacter cloacae, IFO12937; Ent. cloacae IFO 12937; agar dilution; read-out: Minimum Inhibitory Concentration
P. morganii IFO 3168 = experiment: Minimum Inhibitory Concentration, agar dilution, P. morganii IFO 3168; format: cell-based, Proteus morganii; details: Morganella morganii, IFO3168; P. morganii IFO 3168; agar dilution; read-out: Minimum Inhibitory Concentration
Description: as §1

Escherichia coli O-111 = experiment: Comparative protection test on infected mice; format: in vivo; details: O111, sc, 168 h; male ICR/SLC mice infected intraperitoneally with Escherichia coli O-111; single subcutaneous dose immediately after challenge; 7 days observation
Description: (§2) Following each example is a tabulation of the minimal inhibitory concentrations (MIC) of the present compound [I] obtained in accordance with the particular example against several representative gram-negative bacteria and the corresponding concentrations of cephaloridine [7-(2-thienylacetamido)-3-(1-pyridyl)methyl-3-cephem-4-carboxylic acid betaine] and cefazolin [sodium 7-(1H-tetrazol-1-yl)acetamido-3-(2-methyl-1,3,4-thiadiazol-5-yl)thiomethyl-3-cephem-4-carboxylate], both of which are typical cephalosporins commercially available and clinically accepted nowadays [The New England Journal of Medicine 294, 24 (1976) and Journal of Pharmaceutical Science 64, 1899 (1975)]. There are also shown the effective doses of the typical compounds of this invention on the mice infected with Escherichia coli in comparison with that of cephaloridine.
Comparative protection tests of the compounds of this
invention and cephaloridine on infected mice
*Test animals: male mice (ICR/SLC) 5 mice per group per single dose
Infection: intraperitoneally with Escherichia coli O-111
Administration: a single subcutaneous dose immediately after challenge
Observation period: 7 days

P. rettgeri GN 4733 = experiment: Minimum Inhibitory Concentration, agar dilution, P. rettgeri GN 4733; format: cell-based, Proteus rettgeri; details: Providencia rettgeri, GN4733; P. rettgeri GN 4733; agar dilution; read-out: Minimum Inhibitory Concentration
Description: as §1

E. coli O-111 = experiment: Minimum Inhibitory Concentration, agar dilution, E. coli O-111; format: cell-based; details: Escherichia coli, O111; E. coli O-111; agar dilution; read-out: Minimum Inhibitory Concentration
Description: as §2
Minimum Inhibitory Concentrations (mcg/ml, agar dilution)

K. pneumoniae GN 3835 = experiment: Minimum Inhibitory Concentration, agar dilution, K. pneumoniae GN 3835; format: cell-based; details: Klebsiella pneumoniae, GN3835; K. pneumoniae GN 3835; agar dilution; read-out: Minimum Inhibitory Concentration
Description: as §1

P. rettgeri 8(TNO 336) = experiment: Minimum Inhibitory Concentration, agar dilution, P. rettgeri 8(TNO 336); format: cell-based, Proteus rettgeri; details: Providencia rettgeri, P. rettgeri 8(TNO 336), read-out: Minimum Inhibitory Concentration
Description: as §1

P. mirabilis GN 4359 = experiment: Minimum Inhibitory Concentration, agar dilution, P. mirabilis GN 4359; format: cell-based; details: Proteus mirabilis, GN4359; P. mirabilis GN 4359; agar dilution; read-out: Minimum Inhibitory Concentration
Description: as §1

K. pneumoniae DT = experiment: Minimum Inhibitory Concentration, agar dilution, K. pneumoniae DT; format: cell-based; details: Klebsiella pneumoniae; K. pneumoniae DT; agar dilution; read-out: Minimum Inhibitory Concentration
Description: as §1

Cit. freundii GN 1706 = experiment: Minimum Inhibitory Concentration, agar dilution, Cit. freundii GN 1706; format: cell-based; details: Citrobacter freundii, GN1706; Cit. freundii GN 1706; agar dilution; read-out: Minimum Inhibitory Concentration
Description: as §1

Row | Structure (SMILES) | MIC (E. coli T-7) [mg/L] | MIC (Cit. freundii GN 99) [mg/L] | MIC (P. vulgaris IFO 3988) [mg/L] | MIC (E. coli NIHJ) [mg/L] | MIC (Ent. cloacae IFO 12937) [mg/L] | MIC (P. morganii IFO 3168) [mg/L] | ED50 (Escherichia coli O-111) [mg/kg] | MIC (P. rettgeri GN 4733) [mg/L] | MIC (E. coli O-111) [mg/L] | MIC (K. pneumoniae GN 3835) [mg/L] | MIC (P. rettgeri 8(TNO 336)) [mg/L] | MIC (P. mirabilis GN 4359) [mg/L] | MIC (K. pneumoniae DT) [mg/L] | MIC (Cit. freundii GN 1706) [mg/L]
1 | Cc1nnc(SCC2=C(C(=O)O)N3C(=O)C(NC(=O)Cc4csc(=N)n4O)C3SC2)s1 (stereo not shown) [Example 4, sodium 7-[2-(2-imino-3-hydroxy-4-thiazolin-4-yl)acetamido]-3-(2-methyl-1,3,4-thiadiazol-5-yl)thiomethyl-3-cephem-4-carboxylate] | 1.56 | 0.78 | 0.1 | 0.05 | 50 | 0.1 | 0.019 | 0.1 | 0.024 | 0.2 | 0.012 | 0.05 | 0.05 | 1.56
2 | CC(=O)OCC1=C(C(=O)O)N2C(=O)C(NC(=O)Cc3csc(=N)n3O)C2SC1 (stereo not shown) [Example 1, sodium 7-[2-(2-imino-3-hydroxy-4-thiazolin-4-yl)acetamido]-3-acetoxymethyl-3-cephem-4-carboxylate] | 3.13 | 1.56 | 0.39 | 0.2 | 12.5 | 0.39 | 0.075 | 0.1 | 0.1 | 0.2 | ≤ 0.03 | 0.2 | 0.1 | 3.13
